Assay results reported in publication PMC11294390 (Analytical and Bioanalytical Chemistry, 2024).
Read-outs that look alike come from different tables or passages of the source.

Key:
[1] = biological target: human serum albumin (HSA) (Homo sapiens, UniProt P02768); conditions: for k (retention factor): Chiralpak HSA column, racemates
HSA [2] = conditions: value in brackets; cited from earlier work
HSA [3] = conditions: literature-reported; cited from earlier work
[4] = system: differentiated SH-SY5Y cells; conditions: cited from earlier work
HSA Sudlow site I = biological target: T1, HSA Sudlow site I (Homo sapiens, UniProt P02768); assay: Displacement chromatography (zonal elution) with warfarin as competitor; format: binding; conditions: k decreases with rising warfarin, P < 0.05; 1/k vs competitor linear, positive slope
T1 construct: purchased Chiral Technologies Europe (Daicel Chemical Industries, Ltd., Osaka, Japan)
T1 sequence (P02768 25-609): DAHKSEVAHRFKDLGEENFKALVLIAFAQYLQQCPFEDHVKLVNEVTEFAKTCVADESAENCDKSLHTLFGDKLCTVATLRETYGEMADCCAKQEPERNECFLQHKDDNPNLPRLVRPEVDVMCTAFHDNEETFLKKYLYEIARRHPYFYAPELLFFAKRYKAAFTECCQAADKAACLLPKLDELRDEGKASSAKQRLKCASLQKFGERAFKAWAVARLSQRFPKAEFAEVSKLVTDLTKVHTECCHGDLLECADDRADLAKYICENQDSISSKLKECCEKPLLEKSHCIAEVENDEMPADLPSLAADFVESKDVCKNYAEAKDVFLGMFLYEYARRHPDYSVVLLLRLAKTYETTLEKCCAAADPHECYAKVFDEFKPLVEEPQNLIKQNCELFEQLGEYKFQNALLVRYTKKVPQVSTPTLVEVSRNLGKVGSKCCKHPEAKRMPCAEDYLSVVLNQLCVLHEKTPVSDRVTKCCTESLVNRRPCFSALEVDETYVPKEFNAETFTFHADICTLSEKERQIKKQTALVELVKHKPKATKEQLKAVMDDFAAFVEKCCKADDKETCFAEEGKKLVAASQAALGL

HSA [5] = conditions: equilibrium and dynamic dialysis; cited from earlier work
HSA [6] = system: HSA; set-up: method as in PMID 24666938; conditions: HPAC, immobilized HSA column; cited from earlier work
HSA [7] = conditions: cited from earlier work
bovine serum albumin = conditions: spectroscopic technology; cited from earlier work
human plasma proteins = conditions: racemate incubated with plasma, ultrafiltration; cited from earlier work
[8] = 100% potassium phosphate buffer 67 mM pH 7.0, 25 °C
[9] = from k by Eq. 4, 100% potassium phosphate buffer 67 mM pH 7.0, 25 °C

human serum albumin (HSA), sequence (P02768 25-609): as above

CN(C)CCCN1c2ccccc2Sc2ccc(Cl)cc21 [Chlorpromazine, chlorpromazine]
Bound fraction (%b) to HSA, experimental, controls ([1]; human, pH 7): 98.1% | Bound fraction (%b) to HSA, literature value (HSA [2]): > 90%

CC(=O)CC(c1ccccc1)c1c(O)c2ccccc2oc1=O (stereo not shown) [Warfarin, warfarin]
Affinity constant for HSA (HSA [3]): 330000 M⁻¹

CNC(C)CN1c2ccccc2Sc2ccccc21 (stereo not shown) [DMPMZ, N-desmonomethyl promethazine]
Cytotoxicity [4]: even more cytotoxic than PMZ | k (retention factor) [1, 8]: 16.34 | Competition with warfarin (site I) (HSA Sudlow site I): also compete with warfarin and (S)-ibuprofen

CC(CN1c2ccccc2[S+]([O-])c2ccccc21)N(C)C (stereo not shown) [PMZSO, promethazine sulphoxide]
k (retention factor) [1, 8]: 3.99 | Bound fraction (%b) to HSA ([1]; human, 50 µg/mL, pH 7): 80% | Competition with warfarin (site I) (HSA Sudlow site I): also compete with warfarin and (S)-ibuprofen

COc1ccc2c3c1O[C@H]1[C@@H](O)C=C[C@H]4[C@@H](C2)N(C)CC[C@@]341 [COD, codeine]
k (retention factor) [1, 8]: 1.89 | Bound fraction (%b) to HSA [1, 9]: 65% | Binding percentage to HSA (HSA [5]): about 29% | Competition with warfarin (site I) (HSA Sudlow site I): competition was also observed for both sites I and II

CC(CN1c2ccccc2Sc2ccccc21)N(C)C (stereo not shown) [PMZ, promethazine]
Association constant of binding to HSA (HSA [6]): 1.24 ± 0.14 × 10^4 M^−1 | Association constant of binding to HSA (HSA [7]; fluorescence and adsorption spectroscopy): 1.57 ± 0.20 × 10^4 M^−1 | Binding site on HSA (HSA [7]; fluorescence spectroscopy): located in site I (subdomain IIA) | Bound fraction (%b) to HSA [1, 9]: 98% | Binding constant to bovine serum albumin (bovine serum albumin): 1.40 ± 0.04 × 10^4 M^−1 | Competition with warfarin (site I) (HSA Sudlow site I): competes with warfarin | Enantioselective binding to human plasma proteins (human plasma proteins): evidence of the enantioselective binding

Cc1ncc([N+](=O)[O-])n1CCO [Metronidazole, metronidazole]
Bound fraction (%b) to HSA, experimental, controls ([1]; human, pH 7): 19.8% | Bound fraction (%b) to HSA, literature value (HSA [2]): 20.0%
